Drawing on patent US8841291B2, “Selective hydroxamic acid based MMP-12 and MMP-13 inhibitors” (Novartis AG, priority 2008, dated 2014), this text covers IC50 for 13 compounds.

pIC50: −log10 of the molar value. A value given as a limit tells only on which side of the number the result lay.

One assay has as its target T1, Gelatinase (MMP-2) (Homo sapiens, UniProt P08253).
T1 sequence (P08253 110-660): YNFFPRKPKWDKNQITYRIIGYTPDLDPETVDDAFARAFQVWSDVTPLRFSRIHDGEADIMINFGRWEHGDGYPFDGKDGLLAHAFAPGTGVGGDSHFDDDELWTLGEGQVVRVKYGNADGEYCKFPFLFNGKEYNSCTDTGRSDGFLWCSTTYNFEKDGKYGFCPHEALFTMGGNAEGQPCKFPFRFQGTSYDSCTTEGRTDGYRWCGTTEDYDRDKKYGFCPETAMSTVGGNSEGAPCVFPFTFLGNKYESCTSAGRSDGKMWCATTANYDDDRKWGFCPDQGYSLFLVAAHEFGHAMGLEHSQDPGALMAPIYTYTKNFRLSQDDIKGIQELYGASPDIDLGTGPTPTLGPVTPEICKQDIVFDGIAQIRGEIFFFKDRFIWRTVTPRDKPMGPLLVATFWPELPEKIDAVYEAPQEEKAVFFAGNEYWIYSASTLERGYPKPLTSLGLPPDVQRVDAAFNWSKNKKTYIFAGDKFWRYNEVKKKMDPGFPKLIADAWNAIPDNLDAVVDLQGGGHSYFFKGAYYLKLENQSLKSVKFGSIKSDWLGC
In words: Gelatinase (MMP-2) inhibitory activity, fluorogenic peptide substrate assay. Type of assay: biochemical. The settings on record: substrate 5 μM, 60 min preincubation, 20-25° C.; read-out: MMP2 IC50.

Another assay has as its target Collagenase-3 (MMP-13) (Homo sapiens, UniProt P45452). In words: Collagenase-3 (MMP-13) inhibitory activity, fluorogenic peptide substrate assay. Type of assay: biochemical. The note with it: recombinant pro-collagenase-3 activated with 1 mM APMA; read-out: MMP13 IC50.

Experimental for Collagenase-3 (MMP-13): (§1) Stock solutions of inhibitors (0.03 mM-3 mM) are also prepared in DMSO. The inhibitors are diluted into the assay solutions, and the controls use an equal volume of DMSO so that the final DMSO concentration from the inhibitor and substrate dilutions in all assays is 1.0%. Assays are performed in an assay buffer (100 mM sodium chloride, 10 μM ZnCl. Sub 2, 10 mM CaCl2, 100 mM Tris-Cl pH7.5, 0.05% Brij-35), containing 1.0% DMSO from the substrate and inhibitor additions. The substrate concentration used in the assays is 5 μM. The assays are carried out at 20-25° C. […] The reaction mixtures are added in duplicate into appropriate wells of a 384-well assay plate. The reaction mixtures are preincubated with the inhibitors for 60 minutes The reactions are started by the addition of MMP substrate, and the fluorescence intensity changes are measured after 60 minutes The apparent enzyme activity in the presence of an inhibitor is then compared with that in the absence of any inhibitor to determine the inhibition effect of the inhibitor.
Collagenase-3 (MMP-13) inhibitory activity is determined as described above. Recombinant pro-collagenase-3 is activated with 1 mM APMA, and stored in the assay buffer after extensive dialysis in the assay buffer.
Experimental for Gelatinase (MMP-2): as §1

For the compound `CC(C)[C@H](C(=O)NO)N(CCCc1ccccc1)S(=O)(=O)c1ccc2ccc(N)cc2c1` [Example 38, 2-[(7-Amino-naphthalene-2-sulfonyl)-(3-phenyl-propyl)-amino]-N-hydroxy-3-methyl-butyramide], the figures for the negative logarithm of the IC50 (pIC50) on Gelatinase (MMP-2) and at Collagenase-3 (MMP-13) were below 6.52 and 6.72, respectively.
The corresponding values for `CC(=O)Nc1ccc2cc(S(=O)(=O)N(CCCc3ccccc3)[C@@H](C(=O)NO)C(C)C)ccc2c1` [Example 34, 2-[(6-Acetylamino-naphthalene-2-sulfonyl)-(3-phenyl-propyl)-amino]-N-hydroxy-3-methyl-butyramide] are 5.54 and 5.88.
The matching figures for `CC(C)[C@H](C(=O)NO)N(CCOc1ccccc1)S(=O)(=O)c1ccc2ccccc2c1` [Example 30, N-(2-phenoxyethyl)-N-(naphthalene-2-sulfonyl)-D-valine hydroxamic acid]: 7.21 and 8.68.
For the compound `O=C(NO)[C@H]1CCCCN1S(=O)(=O)c1ccc2ccccc2c1` [Example 9, (R)-1-(Naphthalene-2-sulfonyl)-piperidine-2-carboxylic acid hydroxyamide], the negative logarithm of the IC50 (pIC50) at Gelatinase (MMP-2) was 7.31; at Collagenase-3 (MMP-13) it was 8.31.
The matching figures for `Cc1ccc(Nc2ccc3cc(S(=O)(=O)N(Cc4ccccc4)[C@@H](C(=O)NO)C(C)C)ccc3c2)cc1` [Example 43, 2-[Benzyl-(6-p-tolylamino-naphthalene-2-sulfonyl)-amino]-N-hydroxy-3-methyl-butyramide]: below 6.52 and 6.93.
For `CC(C)(C)[C@@H](NS(=O)(=O)c1ccc2ncccc2c1)C(=O)NO` [Example 92, (R)—N-Hydroxy-3,3-dimethyl-2-(quinoline-6-sulfonylamino)-butyramide], the negative-log IC50 (pIC50) on Gelatinase (MMP-2) was 6.12; at Collagenase-3 (MMP-13), 6.65.
The matching figures for `O=C(NO)C1(NS(=O)(=O)c2ccc3ccccc3c2)CCCCC1` [Example 19, 1-(Naphthalene-2-sulfonylamino)-cyclohexanecarboxylic acid hydroxyamide]: 6.35 and 6.14.
The matching figures for `O=C(NO)[C@H]1CC=CCCN1S(=O)(=O)c1ccc2ccccc2c1` [Example 88, (R)-1-(Naphthalene-2-sulfonyl)-2,3,6,7-tetrahydro-1H-azepine-2-carboxylic acid hydroxyamide]: 7.20 and 7.79.
The corresponding values for `CC(C)CCN([C@@H](C(=O)NO)C1CCN(C(=O)OC(C)(C)C)CC1)S(=O)(=O)c1ccc2ccccc2c1` [Example 82, 4-{Hydroxycarbamoyl-[(3-methyl-butyl)-(naphthalene-2-sulfonyl)-amino]-methyl}-piperidine-1-carboxylic acid tert-butyl ester] are above 9.52 and above 9.52.
For the compound `O=C(NO)[C@H]1CCCCN1S(=O)(=O)c1cnc2ccccc2c1` [Example 50, (R)-1-(Quinoline-3-sulfonyl)-piperidine-2-carboxylic acid hydroxyamide], the pIC50 at Gelatinase (MMP-2) is 6.01; on Collagenase-3 (MMP-13), 6.88.
As to `CC(C)[C@H](C(=O)NO)N(CCOc1ccccc1Cl)S(=O)(=O)c1ccc2ccccc2c1` [Example 64, N-(2-(2-chlorophenoxy)ethyl)-N-(naphthalene-2-sulfonyl)-D-valine hydroxamic acid], the negative-log IC50 (pIC50) at Gelatinase (MMP-2) was 6.05; on Collagenase-3 (MMP-13), 7.79.
Take `CC(C)[C@H](C(=O)NO)N(CCCc1ccccc1)S(=O)(=O)c1ccc2cc(N)ccc2c1` [Example 32, 2-[(6-Amino-naphthalene-2-sulfonyl)-(3-phenyl-propyl)-amino]-N-hydroxy-3-methyl-butyramide]: the pIC50 on Gelatinase (MMP-2) is 7.09; on Collagenase-3 (MMP-13) it was 9.00.
The corresponding values for `CC(=O)Nc1ccc2cc(S(=O)(=O)N(CCC(C)C)[C@@H](C(=O)NO)C(C)C)ccc2c1` [Example 55, 2-[(6-Acetylamino-naphthalene-2-sulfonyl)-(3-methyl-butyl)-amino]-N-hydroxy-3-methyl-butyramide] are 7.09 and 8.51.
